# Laboratory results: US20170065667A1, “METHODS FOR SYNCHRONIZATION OF ESTROUS CYCLES AND OVULATION FOR FIXED TIME ARTIFICIAL INSEMINATION IN CATTLE” (Parnell Technologies Pty Ltd., priority 2014, published 2017)
# “And” between values parts separate entries of the source, which are not always exact repeats. Identical values can stand only once. Like-named read-outs stand apart in the source and are kept apart here.
# Key:
# lactating dairy cows [1] = details: cited from earlier work; for percentage of cows with complete CL regression (<0.4 ng/mL 56 hours after PGF2α): 7 day Ovsynch
# lactating dairy cows [2] = test: Experiment 2: P/AI on 11 commercial dairies, Ovsynch vs. Ovsynch + second cloprostenol sodium injection; assay type: in vivo, cattle
# Description: An experiment was performed on 11 commercial dairies in different locations in the United States: 3 dairies in Wisconsin; 3 dairies in California; 2 dairies in New York; 1 dairy in Pennsylvania; 1 dairy in New Mexico; and 1 dairy in Texas. Although overall management was quite different for each herd, each herd used the same reproductive management protocol during this experiment. Cows were randomly assigned within herd, parity, and date to one of three treatment groups at about 40 to about 46 days in milk. One of the treatment groups, Presynch-Ovsynch with heat detection, was not considered in the present analysis. Therefore only two treatment groups were utilized for all analyses, as shown in the diagram for Experiment 2 in FIG. 2.
# All animals were synchronized using a GnRH composition (about 100 mcg of gonadorelin acetate per mL, GONAbreed®, Parnell Technologies Pty Ltd, Alexandria, Australia) and a PGF2α analog composition (about 250 mcg of cloprostenol sodium per mL, estroPLAN®, Parnell Technologies Pty Ltd, Alexandria, Australia).
# (§1) One treatment group began at about 47 to about 53 days in milk where the cows received a first 1 mL intramuscular injection of a gonadorelin acetate composition. At about 54 to about 60 days in milk, the cows received a first 2 mL intramuscular injection of a cloprostenol sodium composition. At about 56 to about 62 days in milk (about 56 hours after the first injection of the cloprostenol sodium composition), the cows received a second 1 mL intramuscular injection of a gonadorelin acetate composition. And at about 57 to about 63 days in milk (about 16 hours after the second injection of the gonadorelin acetate composition), the animals received AI, concluding the Ovsynch phase.
# as §1, with “The other treatment group” for “One treatment group”, “a first 2 mL intramuscular injection of a cloprostenol sodium composition. At about 55 to about 61 days in milk (about 24 hours after the first injection of the cloprostenol sodium composition), the cows received a second 2 mL” for “a first 2 mL”
# Pregnancy diagnosis was performed with ultrasound utilizing the normal schedule for each herd (Wisconsin and Pennsylvania herds, 31-33 days after AI; California, New York, New Mexico, and Texas herds, 37-43 days after AI). Data on all treatments, AI, and pregnancy diagnosis were recorded for each individual cow in most cases (n=1,912). In some cows, data was extrapolated from other recorded data due to missing one treatment recording (n=110) or two or more treatment recordings in a cow (n=126). Pregnancy was based on a verified pregnancy diagnosis. Non-pregnancy was based on absence of pregnancy at a pregnancy diagnosis or a rebreeding to an estrus prior to pregnancy diagnosis. Statistical analyses were performed using PROC Logistic in SAS. Treatment and parity were forced into the model and factors were kept in the model if they were significant at P<0.15.
# lactating dairy cows [3] = details: cited from earlier work
# lactating dairy cows [4] = test: Combined analysis of Experiments 1 and 2: effect of second cloprostenol sodium injection on P/AI; assay type: in vivo, cattle; details: Experiments 1 and 2 combined
# Text: Experiment 1 and Experiment 2 were done with a similar experimental design and therefore results were combined in order to more thoroughly test the effect of a second cloprostenol sodium injection in the Ovsynch protocol on P/AI. There was no effect of the second PGF on P/AI in primiparous cows (P=0.304). However in multiparous cows, the second cloprostenol sodium injection increased (P=0.046) P/AI by about 12%. This effect of a second cloprostenol sodium injection on P/AI was also observed when all cows were included in the analysis (P=0.042). The final combined analysis of both experiments provided the most statistical power to test our main hypothesis (Table 6). Overall, there was increased (P=0.042) P/AI with a 9.6% relative increase in fertility. As in both experiments, the effect was only statistically detectable in multiparous (P=0.046) and not in primiparous (P=0.304) cows. In our study an effect of parity on fertility was only detected in cows treated with Ovsynch (P=0.04) and not in cows treated with Ovsynch with the second PGF treatment (P=0.17). Future studies should directly test whether parity effects with Ovsynch-type protocols are related primarily to differences in CL regression between parities or reflect other fertility differences related to parity.
# [5] = dose from 500 to 750 μg, 7 day protocol
compound,measurement,setting,value
O=C(O)CCC/C=C\CC1C(O)CC(O)C1/C=C/C(O)COc1cccc(Cl)c1 (centres unmarked) [cloprostenol sodium],percentage of cows with complete CL regression,"lactating dairy cows [1]; dinoprost 25 mg, cloprostenol 0.5 mg",79%
same,effect on CL regression of increasing the dose,lactating dairy cows [1]; [5],increased CL regression in multiparous but not primiparous cows
same,"Effect of second cloprostenol sodium injection, Difference in P/AI",lactating dairy cows [2]; All Multiparous,+10.65% (P = 0.073)
same,"Effect of second cloprostenol sodium injection, Difference in P/AI",lactating dairy cows [2]; Fourth or Greater lactation,+0.09% (P = 0.517)
same,"P/AI, % (n/n)","lactating dairy cows [2]; Ovsynch (one cloprostenol sodium injection), farm CA-01",29.4%
same,percentage of cows pregnant per AI,"lactating dairy cows [2]; Ovsynch (one injection), All Multiparous",32.01 (259/809) %
same,percentage of cows pregnant per AI,"lactating dairy cows [2]; Ovsynch (one injection), Fourth or Greater lactation",30.09 (65/216) %
same,percentage of cows pregnant per AI,"lactating dairy cows [2]; Ovsynch (one injection), Primiparous",37.07 (99/267) %
same,percentage of cows pregnant per AI,"lactating dairy cows [2]; Ovsynch (one injection), Second and Third lactation",32.71 (194/593) %
same,"P/AI, % (n/n)","lactating dairy cows [2]; Ovsynch (one injection), Total of 11 farms",33.3%
same,"P/AI, % (n/n)","lactating dairy cows [2]; Ovsynch (one injection), farm CA-02",35.3%
same,"P/AI, % (n/n)","lactating dairy cows [2]; Ovsynch (one injection), farm CA-O3",30.4%
same,"P/AI, % (n/n)","lactating dairy cows [2]; Ovsynch (one injection), farm NM-04",35.2%
same,"P/AI, % (n/n)","lactating dairy cows [2]; Ovsynch (one injection), farm NY-05",32.7%
same,"P/AI, % (n/n)","lactating dairy cows [2]; Ovsynch (one injection), farm NY-06",29.4%
same,"P/AI, % (n/n)","lactating dairy cows [2]; Ovsynch (one injection), farm PA-07",39.2%
same,"P/AI, % (n/n)","lactating dairy cows [2]; Ovsynch (one injection), farm TX-08",37.7%
same,"P/AI, % (n/n)","lactating dairy cows [2]; Ovsynch (one injection), farm WI-09",28.1%
same,"P/AI, % (n/n)","lactating dairy cows [2]; Ovsynch (one injection), farm WI-10",35.3%
same,"P/AI, % (n/n)","lactating dairy cows [2]; Ovsynch (one injection), farm WI-11",26.9%
same,"P/AI, % (n/n)","lactating dairy cows [2]; Ovsynch + second cloprostenol sodium injection, farm CA-01",36.4%
same,percentage of cows pregnant per AI,"lactating dairy cows [2]; Ovsynch + second injection, All Multiparous",35.42 (288/813) %
same,percentage of cows pregnant per AI,"lactating dairy cows [2]; Ovsynch + second injection, Fourth or Greater lactation",30.36 (68/224) %
same,percentage of cows pregnant per AI,"lactating dairy cows [2]; Ovsynch + second injection, Primiparous",38.22 (99/259) %
same,percentage of cows pregnant per AI,"lactating dairy cows [2]; Ovsynch + second injection, Second and Third lactation",37.35 (220/589) %
same,"P/AI, % (n/n)","lactating dairy cows [2]; Ovsynch + second injection, Total of 11 farms",36.1%
same,"P/AI, % (n/n)","lactating dairy cows [2]; Ovsynch + second injection, farm CA-02",39.8%
same,"P/AI, % (n/n)","lactating dairy cows [2]; Ovsynch + second injection, farm CA-O3",34.1%
same,"P/AI, % (n/n)","lactating dairy cows [2]; Ovsynch + second injection, farm NM-04",37.7%
same,"P/AI, % (n/n)","lactating dairy cows [2]; Ovsynch + second injection, farm NY-05",31.2%
same,"P/AI, % (n/n)","lactating dairy cows [2]; Ovsynch + second injection, farm NY-06",42.0%
same,"P/AI, % (n/n)","lactating dairy cows [2]; Ovsynch + second injection, farm PA-07",43.6%
same,"P/AI, % (n/n)","lactating dairy cows [2]; Ovsynch + second injection, farm TX-08",29.8%
same,"P/AI, % (n/n)","lactating dairy cows [2]; Ovsynch + second injection, farm WI-09",40.4%
same,"P/AI, % (n/n)","lactating dairy cows [2]; Ovsynch + second injection, farm WI-10",37.0%
same,"P/AI, % (n/n)","lactating dairy cows [2]; Ovsynch + second injection, farm WI-11",26.9%
same,"Effect of second cloprostenol sodium injection, Difference in P/AI",lactating dairy cows [2]; Second and Third lactation,+14.19% (P = 0.047)
same,"Effect of second cloprostenol sodium injection, relative difference in P/AI",lactating dairy cows [2]; Total of 11 farms,+8.50%
same,"Effect of second cloprostenol sodium injection, relative difference in P/AI",lactating dairy cows [2]; farm CA-01,+23.64%
same,"Effect of second cloprostenol sodium injection, relative difference in P/AI",lactating dairy cows [2]; farm CA-02,+12.99%
same,"Effect of second cloprostenol sodium injection, relative difference in P/AI",lactating dairy cows [2]; farm CA-O3,+12.03%
same,"Effect of second cloprostenol sodium injection, relative difference in P/AI",lactating dairy cows [2]; farm NM-04,+7.04%
same,"Effect of second cloprostenol sodium injection, relative difference in P/AI",lactating dairy cows [2]; farm NY-05,−4.47%
same,"Effect of second cloprostenol sodium injection, relative difference in P/AI",lactating dairy cows [2]; farm NY-06,+43.11%
same,"Effect of second cloprostenol sodium injection, relative difference in P/AI",lactating dairy cows [2]; farm PA-07,+10.98%
same,"Effect of second cloprostenol sodium injection, relative difference in P/AI",lactating dairy cows [2]; farm TX-08,−20.86%
same,"Effect of second cloprostenol sodium injection, relative difference in P/AI",lactating dairy cows [2]; farm WI-09,+43.75%
same,"Effect of second cloprostenol sodium injection, relative difference in P/AI",lactating dairy cows [2]; farm WI-10,−4.94%
same,"Effect of second cloprostenol sodium injection, relative difference in P/AI",lactating dairy cows [2]; farm WI-11,0.0%
same,"Effect of second cloprostenol sodium injection, Difference in P/AI",lactating dairy cows [2]; primiparous,+3.10% (P = 0.393)
same,effect on fertility of increasing the dose,lactating dairy cows [3]; [5],tended to increase fertility
same,increase in P/AI by second cloprostenol sodium injection,lactating dairy cows [4]; multiparous cows,about 12%
prostaglandin F2α [PGF],% of cows with CL regression,lactating dairy cows [1]; cows that ovulated to the first GnRH,79.4%
same,% of cows not having complete CL regression,lactating dairy cows [1]; cows with a d7 and a d14 CL,8.2%
same,% of cows not having complete CL regression,lactating dairy cows [1]; cows with a single d7 CL,35.6%
same,% of cows not having complete CL regression,lactating dairy cows [1]; cows with a single d14 CL,3.0%
same,% of cows with CL regression,lactating dairy cows [1]; cows without ovulation to the first GnRH,93%
same,percentage of cows with complete CL regression (<0.4 ng/mL 56 hours after PGF2α),lactating dairy cows [1]; one PGF2α treatment (day 7),84.6%
same,% of cows with complete CL regression (<0.4 ng/mL at 56 hours after PGF2α),lactating dairy cows [1]; resynchronized at 32 days after TAI with Ovsynch (Resynch-32),83.7%
same,% of cows with complete CL regression (<0.4 ng/mL at 56 hours after PGF2α),lactating dairy cows [1]; resynchronized with Double-Ovsynch,89.1%
same,% of cows with lack of complete / inadequate CL regression,"lactating dairy cows [1]; single PGF2α treatment, Ovsynch-type protocols, literature",10 to 25% and 10-25%
same,percentage of cows with complete CL regression (<0.4 ng/mL 56 hours after PGF2α),lactating dairy cows [1]; two PGF2α treatments (day 7 and day 8),95.6%
same,"Effect of second cloprostenol sodium injection, relative difference in P/AI",lactating dairy cows [2]; Total of 11 farms,8.5%
same,absolute improvement in fertility due to the second PGF treatment,"lactating dairy cows [2]; all results combined, 11 farms",~3%
same,"improvement in fertility in first service cows, two vs. one PGF2α","lactating dairy cows [3]; 7 day Ovsynch, not statistically significant",5.7%
same,fertility in first service cows,"lactating dairy cows [3]; one PGF2α treatment, 7 day Ovsynch",47.0%
same,fertility in first service cows,"lactating dairy cows [3]; two PGF2α treatments, 7 day Ovsynch",52.7%
same,effect of the second PGF on P/AI,lactating dairy cows [4]; primiparous cows,no effect
